Laboratory results published in patent publication US11279726B2, “Norbornene-based amphipathic compound and utilization thereof” (Industry-University Cooperation Foundation Hanyang …, priority 2017, dated 2022).

Key:
[1] = test system: β2AR / β2AR-Gs complex; assay: Size exclusion chromatography of β2AR and β2AR-Gs complex after amphiphile exchange; design: species or system human; settings: 21-day incubation at 4° C.
Protocol: (§1) β2AR purified with 0.1 wt % DDM was loaded onto an M1 Flag column in the presence of 2 mM […], and the column was washed with a DDM or X-NBM-C11 buffer (20 mM HEPES pH 7.5, 100 mM NaCl, 0.2% respective amphiphile). The receptor was eluted in 20× CMC DDM or X-NBM-C11 containing 5 mM EDTA and 0.2 mg/ml free Flag peptide. The eluate was further applied to a superdex-200 10/300 GL column (GE healthcare) at 0.5 ml/min, and UV absorbance at 280 nm was recorded. The running buffer contained 20 mM HEPES pH 7.5, 100 mM NaCl, 20× CMC individual detergents (DDM and X-NBM-C11).
(§2) In addition, GPCR-Gs complex purified in DDM was replaced with X-NBM-C11 through amphiphilic molecule exchange, and sample aliquots were obtained at regular intervals in 21-day incubation at 4° C. to measure complex stability.

[2] = target: T1, β2AR / β2AR-Gs complex (Homo sapiens, UniProt P07550); assay: as above; settings: after amphiphile exchange, 20x CMC
T1 construct: Flag; made in house
Protocol: as §1, §2

[3] = target: β2AR-Gs complex (Homo sapiens, UniProt P07550); assay: Negative stain EM analysis of β2AR-Gs complex
Protocol: A β2AR-Gs protein complex was prepared for electron microscopy using the conventional negative staining protocol, and imaged at room temperature with a Tecnai T12 electron microscope operated at 120 kV using low-dose procedures. Images were recorded at a magnification of 71,138× and a defocus value of approximately 1.4μ using a Gatan US4000 CCD camera. All images were binned (2×2 pixels) to obtain a pixel size of 4.16 A at the specimen level. Particles were manually excised using e2boxer (part of the EMAN2 software suite). 2D reference-free alignment and classification of particle projections were performed using ISAC. 14,556 projections of β2AR-Gs were subjected to ISAC, producing 199 classes consistent over two-way matching and accounting for 10,100 particle projections.

[4] = test system: leucine transporter (LeuT); assay: LeuT stability: [3H]-Leu substrate binding by scintillation proximity assay (SPA); design: species or system Aquifex aeolicus; settings: t=12 day, CMC+0.04 wt %, room temperature
Protocol: An experiment for measuring the stability of LeuT protein with NBMs was performed. Concentrations of individual amphiphilic compounds were (a) CMC+0.04 wt % and (b) CMC+0.2 wt %, and the stability of the LeuT protein was evaluated by measuring a LeuT substrate binding activity using [3H]-Leu via scintillation proximity assay (SPA). The measurement was performed at regular intervals during 12-day incubation at room temperature. Specifically, a wild-type leucine transporter (LeuT) derived from thermophilic bacteria Aquifex aeolicus was purified by the method described previously (G. Deckert et al., Nature 1998, 392, 353-358). LeuT was expressed in E. coli C41 (DE3) transformed with pET16b encoding C-terminally 8× His-tagged transporter (the expression plasmid was provided by Dr E. Gouaux, Vollum Institute, Portland, Oreg., USA). […] Protein samples were stored for 12 days at room temperature, and centrifuged at predetermined points of time, the substrate ([3H]-leucine)-binding activity of the transporter was determined via SPA by taking advantage of protein properties. […] Total [3H]-leucine binding for the respective samples was measured using a MicroBeta liquid scintillation counter (Perkin Elmer).

[5] = target: mBBr-β2AR (Homo sapiens, UniProt P07550); assay: Gs-protein coupling assay, bimane fluorescence of mBBr-β2AR; settings: 0.1% amphiphile, 2 μM ISO, 250 nM Gs
Protocol: To investigate a protein function, the receptor was conjugated with a fluorophore (monobromobimane; mBBr). The mBBr-β2AR was used to monitor the conformational changes of the receptor in the presence of binding partners (isopreoterenol (ISO) and Gs-protein) through fluorescence measurement, and detailed experimental methods are as follows.
0.5 μl undispersed mBBr-labeled receptor at 50 μM in DDM was diluted with 500 μl 0.1% NBM or DDM-containing buffer, and incubated for 15 minutes at room temperature, thereby obtaining a receptor having a final concentration of 50 nM. 2 μM isoproterenol (ISO) was added and the resulting solution was further incubated for 15 minutes at room temperature. After addition of 250 nM Gs, the protein samples were further incubated at room temperature for 20 minutes. Bimane fluorescence was measured by excitation at 370 nm, and emission spectra were recorded from 430 nm to 510 nm in a unit of 1 nm increments with 0.5 nm/s integration on a Spex FluoroMax-3 spectrofluorometer (Jobin Yvon Inc.) in photon counting mode set at 4-nm emission bandwidth pass. The mBBr response in 0.1% DDM was used as a positive control.

SMILES: CCCCCCCCCCCOCC1C2CC([C@H]1COCCCCCCCCCCC)[C@H](O[C@@H]1OC(CO)[C@@H](O[C@H]3OC(CO)[C@@H](O)C(O)C3O)C(O)C1O)C2O[C@@H]1OC(CO)[C@@H](O[C@H]2OC(CO)[C@@H](O)C(O)C2O)C(O)C1O (stereo partly drawn) [X-NBM-C11]
- β2AR-Gs complex stability by SEC profiles [1]: perfectly maintained complex stability
- Size/homogeneity of β2AR protein-detergent complexes (SEC) [2]: homogeneous PDCs with the same size as that formed by DDM
- Particle dispersity of β2AR-Gs complex in negative stain EM [3]: highly mono-dispersed particles
- LeuT substrate binding activity at the end of incubation [4]: a little less than the initial activity of LeuT solubilized in DDM
- Conformational change / function of mBBr-β2AR with ISO and Gs [5]: retains an original protein function

SMILES: CCCCCCCCCCCOCC1C2CC([C@@H]1COCCCCCCCCCCC)[C@H](O[C@@H]1OC(CO)[C@@H](O[C@H]3OC(CO)[C@@H](O)C(O)C3O)C(O)C1O)C2O[C@@H]1OC(CO)[C@@H](O[C@H]2OC(CO)[C@@H](O)C(O)C2O)C(O)C1O (stereo partly drawn) [D-NBM-C11]
- LeuT substrate binding activity at the end of incubation [4]: a little less than the initial activity of LeuT solubilized in DDM
